Assay [1] has as its target soluble human BACE1 catalytic domain (Homo sapiens (Human), UniProt P56817). Briefly: BACE1 HTRF FRET Assay. The class given is biochemical. The conditions noted are these: for Ki: Ki calculated from IC50 using the Cheng-Prusoff equation; for inhibition at 10 µM: read-out: BACE1 % Inh. at 10 μM; for inhibition at 1 µM: read-out: BACE1 % Inh. at 1 μM. The text has this: A homogeneous time-resolved FRET assay can be used to determine IC50 values for inhibitors of the soluble human BACE1 catalytic domain. This assay monitors the increase of 620 nm fluorescence that resulted from BACE1 cleavage of an APPswedish APP^swe mutant peptide FRET substrate (QSY7-[…]-Europium-amide). This substrate contains an N-terminal QSY7 moiety that serves as a quencher of the C-terminal Europium fluorophore (620 nm Em). In the absence of enzyme activity, 620 nm fluorescence is low in the assay and increased linearly over 3 hours in the presence of uninhibited BACE1 enzyme Inhibition of BACE1 cleavage of the QSY7-APP^swe-Eu substrate by inhibitors is manifested as a suppression of 620 nm fluorescence.
Reactions are initiated by addition of 10 μl of 600 nM QSY7-APP^swe-Eu substrate (200 nM final) to give a final reaction volume of 30 μl in a 384 well Nunc HTRF plate. The reactions are incubated at 30° C. for 1.5 hours. The 620 nm fluorescence is then read on a Rubystar HTRF plate reader (BMG Labtechnologies) using a 50 millisecond delay followed by a 400 millisecond acquisition time window Inhibitor IC50 values are derived from non-linear regression analysis of concentration response curves.

The target of assay [2] is purified human autoBACE-2 (Homo sapiens (Human), UniProt Q9Y5Z0). Briefly: BACE-2 Assay (BACE-HTRF assay). The class given is biochemical. The settings on record: Ki calculated from IC50 using the Cheng-Prusoff equation; read-out: BACE2 Ki. The protocol: Inhibitor IC50s at purified human autoBACE-2 are determined in a time-resolved endpoint proteolysis assay that measures hydrolysis of the QSY7-[…]-Eu-amide FRET peptide substrate (BACE-HTRF assay). […] DMSO is present at 5% final concentration in the assay. Following laser excitation of sample wells at 320 nm, the fluorescence signal at 620 nm is collected for 400 ms following a 50 μs delay on a RUBYstar HTRF plate reader (BMG Labtechnologies). Raw RFU data is normalized to maximum (1.0 nM BACE/DMSO) and minimum (no enzyme/DMSO) RFU values. […] The Ki values are calculated from the IC50 using the Cheng-Prusoff equation.

Some results are limits rather than exact numbers.

purified human autoBACE-2, sequence (Q9Y5Z0 63-473 limits assumed): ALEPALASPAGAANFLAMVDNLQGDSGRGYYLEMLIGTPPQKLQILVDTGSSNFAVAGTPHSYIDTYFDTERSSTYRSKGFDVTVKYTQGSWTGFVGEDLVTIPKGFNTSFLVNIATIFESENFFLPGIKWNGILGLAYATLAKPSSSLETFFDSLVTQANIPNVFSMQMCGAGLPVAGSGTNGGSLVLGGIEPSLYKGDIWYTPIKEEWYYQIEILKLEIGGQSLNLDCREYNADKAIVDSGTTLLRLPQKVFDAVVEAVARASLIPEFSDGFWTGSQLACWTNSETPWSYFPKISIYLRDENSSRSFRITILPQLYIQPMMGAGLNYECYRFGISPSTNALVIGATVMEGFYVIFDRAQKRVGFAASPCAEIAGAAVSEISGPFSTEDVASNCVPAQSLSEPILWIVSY
soluble human BACE1 catalytic domain, sequence (P56817 75-416): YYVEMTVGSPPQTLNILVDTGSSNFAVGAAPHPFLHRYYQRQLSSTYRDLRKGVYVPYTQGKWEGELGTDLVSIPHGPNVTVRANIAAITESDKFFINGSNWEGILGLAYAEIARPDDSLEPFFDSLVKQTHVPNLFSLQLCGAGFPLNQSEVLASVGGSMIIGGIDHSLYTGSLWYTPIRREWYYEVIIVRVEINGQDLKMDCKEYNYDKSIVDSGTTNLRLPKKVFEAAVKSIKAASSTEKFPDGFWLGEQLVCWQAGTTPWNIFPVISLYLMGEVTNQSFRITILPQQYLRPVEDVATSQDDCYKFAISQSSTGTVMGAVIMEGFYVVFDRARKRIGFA

`C[C@@]1(c2cc(N)ccc2F)CS(=O)(=O)C2(CC2)C(=N)N1`: the results for the Ki in assay [1] and in assay [2] were 4900 nM and 1860 nM, respectively.

Take `C[C@@]1(c2cc([N+](=O)[O-])ccc2F)CS(=O)(=O)C2(CCC2)C(=N)N1`: the Ki in assay [1] is 3630 nM; in assay [2], 3200 nM.

As to `C[C@@]1(c2cc(N)ccc2F)CS(=O)(=O)C2(CCC2)C(=N)N1`, the inhibition at 10 µM in assay [1] is 54%. Moreover, in assay [2], the Ki is 3970 nM.

On to `C[C@@]1(c2cc([N+](=O)[O-])ccc2F)CS(=O)(=O)C2(CCCC2)C(=N)N1`, for which the inhibition at 1 µM in assay [1] turned out to be 44%. In addition, in assay [2], the Ki is 734 nM.

In the case of `C[C@@]1(c2cc(N)ccc2F)CS(=O)(=O)C2(CCCC2)C(=N)N1`, the Ki in assay [1] is 4130 nM; in assay [2] it was 1420 nM.

In the case of `C[C@@]1(c2cc(N)ccc2F)CS(=O)(=O)C2(CCCCC2)C(=N)N1`, the inhibition at 10 µM in assay [1] is 49%. Also, the Ki in assay [2] was 2800 nM.

Take `C[C@@]1(c2cc(N)ccc2F)CS(=O)(=O)C2(CCOCC2)C(=N)N1`: the figures for the Ki in assay [1] and in assay [2] were 7020 nM and 3580 nM, respectively.

Regarding `C[C@@]1(c2cc(Br)ccc2F)CS(=O)(=O)C2(CCCC2)C(=N)N1`, in assay [1], the inhibition at 1 µM was 42%. The Ki in assay [2] is 935 nM.

In the case of `C[C@@]1(c2sc(Br)cc2Cl)CS(=O)(=O)C2(CCCC2)C(=N)N1`, the Ki in assay [1] is 447 nM; in assay [2] it was 134 nM.

Take `C[C@@]1(c2sc(Br)cc2Cl)CS(=O)(=O)C2(CCCCC2)C(=N)N1`: the Ki in assay [1] was 2610 nM; in assay [2], 715 nM.

Take `C[C@@]1(c2sc(Br)cc2Cl)CS(=O)(=O)C2(CCOCC2)C(=N)N1`: the Ki in assay [1] is 2370 nM; in assay [2], 1090 nM.

Take `C[C@@]1(c2sc(Br)cc2Cl)CS(=O)(=O)C2(CCC2)C(=N)N1`: the results for the Ki in assay [1] and in assay [2] were 1570 nM and 531 nM, respectively.

`C[C@@]1(c2cc([N+](=O)[O-])ccc2F)CS(=O)(=O)[C@]2(CCOC2)C(=N)N1`: the results for the Ki in assay [1] and in assay [2] were 6690 nM and 2080 nM, respectively.

For `C[C@@]1(c2cc(N)ccc2F)CS(=O)(=O)[C@]2(CCOC2)C(=N)N1`, the inhibition at 10 µM in assay [1] amounted to 45%. Also, the Ki in assay [2] was 5110 nM.

`C[C@@]1(c2cc([N+](=O)[O-])ccc2F)CS(=O)(=O)[C@@]2(CCOC2)C(=N)N1`: the Ki in assay [1] is 6120 nM; in assay [2], 2670 nM.

As to `C[C@@]1(c2cc(N)ccc2F)CS(=O)(=O)[C@@]2(CCOC2)C(=N)N1`, in assay [1], the inhibition at 10 µM amounted to 38%. Moreover, the Ki in assay [2] was 3820 nM.

Consider `C[C@@]1(c2sc(Br)cc2Cl)CS(=O)(=O)C2(CC2)C(=N)N1`, for which the Ki was 912 nM in assay [1] and 465 nM in assay [2].

For the compound `C[C@@]1(c2cc(NC(=O)c3ccc(F)cn3)ccc2F)CS(=O)(=O)C2(CCC(O)C2)C(=N)N1` (single isomer, unassigned) [Example 76a], the results for the Ki in assay [1] and in assay [2] were 9.3 nM and 2.4 nM, respectively.

As for `C[C@@]1(c2cc(NC(=O)c3ccc(F)cn3)ccc2F)CS(=O)(=O)C2(CCC(O)C2)C(=N)N1` (single isomer, unassigned) [Example 76b], the Ki is 104 nM in assay [1] and below 50 nM in assay [2].

Take `C[C@@]1(c2cc(NC(=O)c3ccc(Cl)cn3)ccc2F)CS(=O)(=O)C2(CC2)C(=N)N1` [Example 1]: the Ki in assay [1] was 1.6 nM; in assay [2], 0.4 nM.

On to `COc1cnc(C(=O)Nc2ccc(F)c([C@]3(C)CS(=O)(=O)C4(CC4)C(=N)N3)c2)cn1` [Example 2], for which the values for the Ki in assay [1] and in assay [2] were 4.2 nM and below 20 nM, respectively.

On to `C[C@@]1(c2cc(NC(=O)c3ccc(F)cn3)ccc2F)CS(=O)(=O)C2(CC2)C(=N)N1` [Example 3], for which the inhibitory constant (Ki) was 5.5 nM in assay [1] and 0.9 nM in assay [2].

With `C[C@@]1(c2cc(NC(=O)c3ncc(F)cc3F)ccc2F)CS(=O)(=O)C2(CC2)C(=N)N1` [Example 4], the Ki in assay [1] is 5 nM; in assay [2], 0.5 nM.

Turning to `COc1ccc(C(=O)Nc2ccc(F)c([C@]3(C)CS(=O)(=O)C4(CC4)C(=N)N3)c2)nc1` [Example 5], the Ki is 3.4 nM in assay [1] and 1.9 nM in assay [2].

Regarding `C[C@@]1(c2cc(NC(=O)c3ccc(Cl)cn3)ccc2F)CS(=O)(=O)C2(CCC2)C(=N)N1` [Example 6], the Ki is 8 nM in assay [1] and 1.9 nM in assay [2].

For `COc1cnc(C(=O)Nc2ccc(F)c([C@]3(C)CS(=O)(=O)C4(CCC4)C(=N)N3)c2)cn1` [Example 7], the Ki is 11.7 nM in assay [1] and below 50 nM in assay [2].

Regarding `C[C@@]1(c2cc(NC(=O)c3ccc(F)cn3)ccc2F)CS(=O)(=O)C2(CCC2)C(=N)N1` [Example 8], the Ki in assay [1] was 17.1 nM; in assay [2], 4.2 nM.

On to `C[C@@]1(c2cc(NC(=O)c3ncc(F)cc3F)ccc2F)CS(=O)(=O)C2(CCC2)C(=N)N1` [Example 9], for which the results for the Ki in assay [1] and in assay [2] were 12.6 nM and 2.5 nM, respectively.

As for `COc1ccc(C(=O)Nc2ccc(F)c([C@]3(C)CS(=O)(=O)C4(CCC4)C(=N)N3)c2)nc1` [Example 10], the Ki is 10.7 nM in assay [1] and below 20 nM in assay [2].

Regarding `C[C@@]1(c2cc(NC(=O)c3ccc(C#N)cn3)ccc2F)CS(=O)(=O)C2(CCC2)C(N)=N1` [Example 11], the Ki in assay [1] was 5.4 nM; in assay [2] it was below 20 nM.

Consider `C[C@@]1(c2cc(NC(=O)c3ccc(Cl)cn3)ccc2F)CS(=O)(=O)C2(CCCC2)C(=N)N1` [Example 12], for which the figures for the Ki in assay [1] and in assay [2] were 1.3 nM and 0.3 nM, respectively.

Turning to `C[C@@]1(c2cc(NC(=O)c3ccc(F)cn3)ccc2F)CS(=O)(=O)C2(CCCC2)C(=N)N1` [Example 13], the figures for the Ki in assay [1] and in assay [2] were 3.1 nM and 0.3 nM, respectively.

For `C[C@@]1(c2cc(NC(=O)c3ccc(C(F)(F)F)cn3)ccc2F)CS(=O)(=O)C2(CCCC2)C(=N)N1` [Example 14], the Ki in assay [1] is 2.2 nM; in assay [2] it was 2.1 nM.

`COc1ccc(C(=O)Nc2ccc(F)c([C@]3(C)CS(=O)(=O)C4(CCCC4)C(=N)N3)c2)nc1` [Example 15]: the results for the Ki in assay [1] and in assay [2] were 5.2 nM and 0.6 nM, respectively.

On to `C[C@@]1(c2cc(NC(=O)c3cnc(C(F)(F)F)cn3)ccc2F)CS(=O)(=O)C2(CCCC2)C(=N)N1` [Example 16], for which the results for the Ki in assay [1] and in assay [2] were 13 nM and below 20 nM, respectively.

In the case of `C[C@@]1(c2cc(NC(=O)c3ccc(Cl)cn3)ccc2F)CS(=O)(=O)C2(CCCCC2)C(=N)N1` [Example 24], in assay [2], the Ki was below 20 nM.

In the case of `CCC(=O)Nc1ccc(F)c([C@]2(C)CS(=O)(=O)[C@]3(CCOC3)C(=N)N2)c1` [Example 81l], the Ki in assay [1] is 949 nM.

As for `C[C@@]1(c2cc(NC(=O)c3ccc(Cl)cc3)ccc2F)CS(=O)(=O)[C@]2(CCOC2)C(=N)N1` [Example 81m], the Ki in assay [1] was 82 nM.

As to `C[C@@]1(c2cc(NC(=O)C(F)F)ccc2F)CS(=O)(=O)[C@]2(CCOC2)C(=N)N1` [Example 81n], the Ki in assay [1] was 639 nM.

With `C[C@@]1(c2cc(NC(=O)C3CCC3(F)F)ccc2F)CS(=O)(=O)[C@]2(CCOC2)C(=N)N1` (some centres unmarked) [Example 81o], the Ki in assay [1] is 3710 nM.

On to `CC1(C(=O)Nc2ccc(F)c([C@]3(C)CS(=O)(=O)[C@]4(CCOC4)C(=N)N3)c2)COC1` [Example 81p], for which, in assay [1], the Ki was 4180 nM.

As for `C[C@@]1(c2cc(NC(=O)C3CCOCC3)ccc2F)CS(=O)(=O)[C@]2(CCOC2)C(=N)N1` [Example 81q], the inhibition at 10 µM in assay [1] was 15%.

As to `C[C@@]1(c2cc(NC(=O)CC(F)(F)F)ccc2F)CS(=O)(=O)[C@]2(CCOC2)C(=N)N1` [Example 81r], the Ki in assay [1] was 3170 nM.

In the case of `C[C@@]1(c2cc(NC(=O)C3CC3(F)F)ccc2F)CS(=O)(=O)[C@]2(CCOC2)C(=N)N1` (some centres unmarked) [Example 81s], in assay [1], the Ki was 1250 nM.

Consider `C[C@@]1(c2cc(NC(=O)c3cncs3)ccc2F)CS(=O)(=O)[C@]2(CCOC2)C(=N)N1` [Example 81t], for which, in assay [1], the Ki is 1940 nM.

Take `C[C@@]1(c2cc(NC(=O)c3cscn3)ccc2F)CS(=O)(=O)[C@]2(CCOC2)C(=N)N1` [Example 81u]: the Ki in assay [1] is 433 nM.

`C[C@@]1(c2cc(NC(=O)c3ccc(F)cc3F)ccc2F)CS(=O)(=O)[C@]2(CCOC2)C(=N)N1` [Example 81v]: the inhibition at 10 µM in assay [1] was determined as 58%.

On to `COCC(=O)Nc1ccc(F)c([C@]2(C)CS(=O)(=O)[C@]3(CCOC3)C(=N)N2)c1` [Example 81w], for which the Ki in assay [1] is 429 nM.

As to `CC(=O)Nc1ccc(F)c([C@]2(C)CS(=O)(=O)[C@]3(CCOC3)C(=N)N2)c1` [Example 81x], the Ki in assay [1] was 1520 nM.

As for `Cc1ccc(C(=O)Nc2ccc(F)c([C@]3(C)CS(=O)(=O)[C@]4(CCOC4)C(=N)N3)c2)nc1` [Example 81y], the Ki in assay [1] is 41 nM.

With `C[C@@]1(c2cc(NC(=O)c3ccc(S(C)(=O)=O)cn3)ccc2F)CS(=O)(=O)[C@]2(CCOC2)C(=N)N1` [Example 81z], the Ki in assay [1] is 3170 nM.

The values above are taken from patent US9181236B2, “2-spiro-substituted iminothiazines and their mono-and dioxides as bace inhibitors, compositions and their use” (Merck Sharp & Dohme Corp., priority 2011, dated 2015).
